From US8217029B2, “Oxazolidinone antibiotics” (Actelion Pharmaceuticals Ltd, priority 2007, dated 2012)
Values after ≈ are worked out from the molar mass of the structure shown.

Test system: S aureus A798
Assay: Minimal inhibitory concentration (MIC), microdilution method in cation-adjusted Mueller-Hinton Broth following NCCLS guidelines
Assay type: cell-based
Settings: pH of test medium 7.2-7.3
Method in brief: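 Broth microdilution per NCCLS M7-A4 in cation-adjusted Mueller-Hinton broth at pH 7.2-7.3; MIC reported in mg/l.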

| Compound | MIC [µg/mL] |
| --- | --- |
| COc1ccc2nccc(N3CCN(C[C@@H]4CN(c5ccc(F)c(C)c5)C(=O)O4)CC3)c2n1 [Example 30, (R)-3-(4-Fluoro-3-methyl-phenyl)-5-[4-(6-methoxy-[1,5]naphthyridin-4-yl)-piperazin-1-ylmethyl]-oxazolidin-2-one] | 0.125 (≈ 0.277 µM) |
| COc1ccc2nccc(C3(O)CCN(CC4CN(c5ccc6c(c5)OCCO6)C(=O)O4)CC3)c2n1 (racemic) [Example 3, (RS)-3-(2,3-Dihydro-benzo[1,4]dioxin-6-yl)-5-[4-hydroxy-4-(6-methoxy-[1,5]naphthyridin-4-yl)-piperidin-1-ylmethyl]-oxazolidin-2-one] | ≤ 0.031 |
| COc1ccc2nccc(N3CCN(C[C@@H]4CN(c5ccc6c(c5)OCCO6)C(=O)O4)CC3)c2n1 [Example 9, (R)-3-(2,3-Dihydro-benzo[1,4]dioxin-6-yl)-5-[4-(6-methoxy-[1,5]naphthyridin-4-yl)-piperazin-1-ylmethyl]-oxazolidin-2-one] | ≤ 0.031 |
| COc1ccc2nccc(N3CCN(CC4CN(c5ccc(C)cn5)C(=O)O4)CC3)c2n1 (racemic) [Example 43, (RS)-5-[4-(6-Methoxy-[1,5]naphthyridin-4-yl)-piperazin-1-ylmethyl]-3-(5-methyl-pyridin-2-yl)-oxazolidin-2-one] | 1 (≈ 2.3 µM) |
| COc1ccc2nccc(N3CC(NCCC4CN(c5ccc6c(c5)NC(=O)CS6)C(=O)O4)C3)c2n1 (racemic) [Example 58, (RS)-6-(5-{2-[1-(6-Methoxy-[1,5]naphthyridin-4-yl)-azetidin-3-ylamino]-ethyl}-2-oxo-oxazolidin-3-yl)-4H-benzo[1,4]thiazin-3-one] | ≤ 0.031 |

The next lines start with the values.

| MIC [µg/mL] | Compound |
| --- | --- |
| ≤ 0.031 | COc1ccc2nccc(N3CCN(CC4CN(c5ccc6c(n5)NC(=O)CO6)C(=O)O4)CC3)c2n1 (racemic) [Example 113, (RS)-6-{5-[4-(6-Methoxy-[1,5]naphthyridin-4-yl)-piperazin-1-ylmethyl]-2-oxo-oxazolidin-3-yl}-4H-pyrido[3,2-b][1,4]oxazin-3-one] |
| ≤ 0.031 | COc1ccc2nccc(N3CC[C@H](NC[C@@H]4CN(c5ccc6c(c5)NC(=O)CO6)C(=O)O4)C3)c2n1 [Example 69, 6-((R)-5-{[(S)-1-(6-Methoxy-[1,5]naphthyridin-4-yl)-pyrrolidin-3-ylamino]-methyl}-2-oxo-oxazolidin-3-yl)-4H-benzo[1,4]oxazin-3-one] |
| ≤ 0.031 | COc1ccc2nccc(N3CC(N(C)C[C@@H]4CN(c5ccc(C)c(C(F)(F)F)c5)C(=O)O4)C3)c2n1 [Example 135, (R)-5-({[1-(6-Methoxy-[1,5]naphthyridin-4-yl)-azetidin-3-yl]-methyl-amino}-methyl)-3-(4-methyl-3-trifluoromethyl-phenyl)-oxazolidin-2-one] |
| 0.125 | COc1ccc2nccc(N3C[C@H]4CCN(C(=O)[C@@H]5CN(c6ccc7c(c6)OCCO7)C(=O)O5)[C@H]4C3)c2n1 (mixture of isomers) [Example 95, (S)-3-(2,3-Dihydro-benzo[1,4]dioxin-6-yl)-5-[(3aR*,6aR*)-5-(6-methoxy-[1,5]naphthyridin-4-yl)-hexahydro-pyrrolo[3,4-b]pyrrole-1-carbonyl]-oxazolidin-2-one] |
